Results reported in patent US9611267B2, “Substituted tricyclic compounds as FGFR inhibitors” (Incyte Corporation, priority 2012, dated 2017).

Legend:
Type in all cases: biochemical
FGFR1 = FGFR1 (Homo sapiens (Human), UniProt P11362); assay: FGFR enzymatic assay (FRET peptide phosphorylation), FGFR1; conditions: FGFR1 enzyme 0.02 nM, ATP 210 μM
Outline: (§1)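 IC50 values were obtained from variable-slope sigmoidal dose-response fitting of a FRET read-out of peptide phosphorylation. The buffer, described for FGFR3, was 50 mM HEPES pH 7.5 with MgCl2, EGTA, Tween-20 and DTT.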

FGFR2 = FGFR2 (Homo sapiens (Human), UniProt P21802); assay: FGFR enzymatic assay (FRET peptide phosphorylation), FGFR2; conditions: FGFR2 enzyme 0.01 nM, ATP 100 μM
Outline: as §1

FGFR3 = FGFR3 (Homo sapiens (Human), UniProt P22607); assay: FGFR enzymatic assay (FRET peptide phosphorylation), FGFR3; conditions: FGFR3 enzyme (Millipore), ATP 140 μM
Outline: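 After 5-10 min pre-incubation of FGFR3 with serially diluted compound in pH 7.5 HEPES/MgCl2/EGTA/DTT buffer, the reaction proceeded 1 hr at 25° C. Phosphorylated peptide was detected by FRET, and IC50 was fitted with a variable-slope sigmoid.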

Measured: IC50

Chain of FGFR3 (P22607 23-806): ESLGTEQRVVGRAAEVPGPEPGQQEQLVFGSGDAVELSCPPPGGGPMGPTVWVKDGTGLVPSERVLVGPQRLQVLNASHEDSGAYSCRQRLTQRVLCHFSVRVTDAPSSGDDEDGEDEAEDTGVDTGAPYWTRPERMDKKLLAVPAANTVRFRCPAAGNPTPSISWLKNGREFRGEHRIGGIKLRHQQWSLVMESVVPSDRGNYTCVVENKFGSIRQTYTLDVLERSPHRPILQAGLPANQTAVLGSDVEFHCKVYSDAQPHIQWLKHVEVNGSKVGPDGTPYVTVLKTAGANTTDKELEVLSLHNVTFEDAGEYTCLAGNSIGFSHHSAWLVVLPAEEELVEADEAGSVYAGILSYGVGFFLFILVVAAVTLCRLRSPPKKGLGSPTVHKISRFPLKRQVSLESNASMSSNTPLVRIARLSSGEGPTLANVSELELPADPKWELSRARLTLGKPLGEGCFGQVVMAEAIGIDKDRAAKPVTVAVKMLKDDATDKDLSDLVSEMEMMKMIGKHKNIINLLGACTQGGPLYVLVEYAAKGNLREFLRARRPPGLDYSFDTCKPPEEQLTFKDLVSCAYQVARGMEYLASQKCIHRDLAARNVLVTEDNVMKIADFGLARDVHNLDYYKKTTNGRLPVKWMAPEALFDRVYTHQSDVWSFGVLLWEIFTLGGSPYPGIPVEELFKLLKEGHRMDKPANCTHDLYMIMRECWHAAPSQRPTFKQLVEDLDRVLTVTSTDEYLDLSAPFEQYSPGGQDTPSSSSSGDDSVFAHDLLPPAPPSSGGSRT
Chain of FGFR1 (P11362 22-822): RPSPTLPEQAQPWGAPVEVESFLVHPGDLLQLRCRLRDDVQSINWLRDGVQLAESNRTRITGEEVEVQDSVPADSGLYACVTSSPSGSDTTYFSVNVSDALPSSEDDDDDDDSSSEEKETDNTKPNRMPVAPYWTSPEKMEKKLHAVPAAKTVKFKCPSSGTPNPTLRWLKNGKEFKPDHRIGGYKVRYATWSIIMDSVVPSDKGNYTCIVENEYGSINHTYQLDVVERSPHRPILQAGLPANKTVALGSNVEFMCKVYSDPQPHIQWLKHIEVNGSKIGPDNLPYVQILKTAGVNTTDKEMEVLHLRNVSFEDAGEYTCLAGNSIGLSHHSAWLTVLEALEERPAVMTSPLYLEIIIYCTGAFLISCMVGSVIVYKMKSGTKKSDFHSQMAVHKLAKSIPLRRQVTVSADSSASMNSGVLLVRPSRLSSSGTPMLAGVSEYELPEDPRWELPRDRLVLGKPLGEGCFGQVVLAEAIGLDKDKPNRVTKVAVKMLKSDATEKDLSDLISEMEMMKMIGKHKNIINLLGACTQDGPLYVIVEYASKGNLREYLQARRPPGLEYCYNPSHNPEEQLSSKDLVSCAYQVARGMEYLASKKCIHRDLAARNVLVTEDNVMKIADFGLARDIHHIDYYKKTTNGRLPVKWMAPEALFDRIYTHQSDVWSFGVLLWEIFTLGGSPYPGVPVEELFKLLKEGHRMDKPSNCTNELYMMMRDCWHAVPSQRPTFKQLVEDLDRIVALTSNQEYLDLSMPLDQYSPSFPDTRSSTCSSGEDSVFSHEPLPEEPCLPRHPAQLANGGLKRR
Chain of FGFR2 (P21802 22-821): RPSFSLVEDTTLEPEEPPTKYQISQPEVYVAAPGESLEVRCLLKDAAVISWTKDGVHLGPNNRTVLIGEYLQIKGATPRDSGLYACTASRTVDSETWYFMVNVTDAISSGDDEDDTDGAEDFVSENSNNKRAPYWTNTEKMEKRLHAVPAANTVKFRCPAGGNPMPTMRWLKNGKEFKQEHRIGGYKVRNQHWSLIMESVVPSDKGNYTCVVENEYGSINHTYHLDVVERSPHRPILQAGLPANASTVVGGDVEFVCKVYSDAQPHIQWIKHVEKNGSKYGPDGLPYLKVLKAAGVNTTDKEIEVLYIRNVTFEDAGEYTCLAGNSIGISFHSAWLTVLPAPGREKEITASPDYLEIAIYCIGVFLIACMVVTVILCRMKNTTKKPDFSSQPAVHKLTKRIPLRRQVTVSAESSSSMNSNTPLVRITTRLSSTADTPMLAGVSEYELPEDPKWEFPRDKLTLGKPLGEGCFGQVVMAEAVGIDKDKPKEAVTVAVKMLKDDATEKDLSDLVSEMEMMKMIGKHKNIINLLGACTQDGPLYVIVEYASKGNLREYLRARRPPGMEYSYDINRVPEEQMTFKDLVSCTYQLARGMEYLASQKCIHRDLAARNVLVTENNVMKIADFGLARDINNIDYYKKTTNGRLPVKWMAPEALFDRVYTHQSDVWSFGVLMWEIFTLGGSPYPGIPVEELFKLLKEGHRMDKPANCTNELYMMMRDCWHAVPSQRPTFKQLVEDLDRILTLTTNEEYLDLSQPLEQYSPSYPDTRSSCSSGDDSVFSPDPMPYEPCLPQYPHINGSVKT

COc1cc(OC)c(F)c(N2Cc3cnc4[nH]ncc4c3N(c3cccnc3)C2=O)c1F [Example 94, 3-(2,6-difluoro-3,5-dimethoxyphenyl)-1-pyridin-3-yl-1,3,4,7-tetrahydro-2H-pyrazolo[4′,3′:5,6]pyrido[4,3-d]pyrimidin-2-one]
< 100 nM: all assays above

COc1cc(OC)c(F)c(N2Cc3cnc4[nH]ncc4c3N(c3nnn(C)n3)C2=O)c1F [Example 95, 3-(2,6-difluoro-3,5-dimethoxyphenyl)-1-(2-methyl-2H-tetrazol-5-yl)-1,3,4,7-tetrahydro-2H-pyrazolo[4′,3′:5,6]pyrido[4,3-d]pyrimidin-2-one]
< 100 nM: all assays above

COc1cc(OC)c(F)c(N2Cc3cnc4[nH]ncc4c3N(c3cccc4cccnc34)C2=O)c1F [Example 96, 3-(2,6-difluoro-3,5-dimethoxyphenyl)-1-quinolin-8-yl-1,3,4,7-tetrahydro-2H-pyrazolo[4′,3′:5,6]pyrido[4,3-d]pyrimidin-2-one]
< 100 nM: all assays above

COc1cc(OC)c(F)c(N2Cc3cnc4[nH]nc(C)c4c3N(C3CC3)C2=O)c1F [Example 97, 1-cyclopropyl-3-(2,6-difluoro-3,5-dimethoxyphenyl)-9-methyl-1,3,4,7-tetrahydro-2H-pyrazolo[4′,3′:5,6]pyrido[4,3-d]pyrimidin-2-one]
< 100 nM: all assays above

CCN1C(=O)N(c2c(F)c(OC)cc(OC)c2F)Cc2cnc3[nH]nc(C)c3c21 [Example 98, 3-(2,6-difluoro-3,5-dimethoxyphenyl)-1-ethyl-9-methyl-1,3,4,7-tetrahydro-2H-pyrazolo[4′,3′:5,6]pyrido[4,3-d]pyrimidin-2-one]
< 100 nM: all assays above

COc1cc(OC)c(F)c(N2Cc3cnc4[nH]ncc4c3NC2=O)c1F [Example 99, 3-(2,6-difluoro-3,5-dimethoxyphenyl)-1,3,4,7-tetrahydro-2H-pyrazolo[4′,3′:5,6]pyrido[4,3-d]pyrimidin-2-one]
< 100 nM: all assays above

COc1cc(OC)c(F)c(N2Cc3cnc4[nH]nc(CCN5CCOCC5)c4c3N(C)C2=O)c1F [Example 100, 3-(2,6-difluoro-3,5-dimethoxyphenyl)-1-methyl-9-(2-morpholin-4-ylethyl)-1,3,4,7-tetrahydro-2H-pyrazolo[4′,3′:5,6]pyrido[4,3-d]pyrimidin-2-one]
< 100 nM: all assays above

COc1cc(OC)c(Cl)c(N2Cc3cnc4[nH]ncc4c3N(C3CC3)C2=O)c1F [Example 101, 3-(2-chloro-6-fluoro-3,5-dimethoxyphenyl)-1-cyclopropyl-1,3,4,7-tetrahydro-2H-pyrazolo[4′,3′:5,6]pyrido[4,3-d]pyrimidin-2-one]
< 100 nM: all assays above

COc1cc(OC)c(Cl)c(N2Cc3cnc4[nH]ncc4c3N(C3CCC3)C2=O)c1F [Example 102, 3-(2-chloro-6-fluoro-3,5-dimethoxyphenyl)-1-cyclobutyl-1,3,4,7-tetrahydro-2H-pyrazolo[4′,3′:5,6]pyrido[4,3-d]pyrimidin-2-one]
< 100 nM: all assays above

COc1cc(OC)c(F)c(N2Cc3cnc4[nH]ccc4c3NC2=O)c1F [Example 103, 3-(2,6-difluoro-3,5-dimethoxyphenyl)-1,3,4,7-tetrahydro-2H-pyrrolo[3′,2′:5,6]pyrido[4,3-d]pyrimidin-2-one]
< 100 nM: all assays above

COc1cc(OC)c(F)c(N2Cc3cnc4[nH]cc(C)c4c3N(C)C2=O)c1F [Example 104, 3-(2,6-difluoro-3,5-dimethoxyphenyl)-1,9-dimethyl-1,3,4,7-tetrahydro-2H-pyrrolo[3′,2′:5,6]pyrido[4,3-d]pyrimidin-2-one]
< 100 nM: all assays above

COc1cc(OC)c(F)c(N2Cc3cnc4[nH]cc(CC#N)c4c3N(C)C2=O)c1F [Example 105, [3-(2,6-difluoro-3,5-dimethoxyphenyl)-1-methyl-2-oxo-2,3,4,7-tetrahydro-1H-pyrrolo[3′,2′:5,6]pyrido[4,3-d]pyrimidin-9-yl]acetonitrile]
< 100 nM: all assays above

COc1cc(OC)c(Cl)c(N2Cc3cnc4c(c3N(C3CCC3)C2=O)CC(=O)N4)c1F [Example 106, 3-(2-chloro-6-fluoro-3,5-dimethoxyphenyl)-1-cyclobutyl-3,4,7,9-tetrahydro-1H-pyrrolo[3′,2′:5,6]pyrido[4,3-d]pyrimidine-2,8-dione]
< 100 nM: all assays above

COc1cc(OC)c(Cl)c(N2Cc3cnc4[nH]ccc4c3N(c3cnn(C)c3)C2=O)c1F [Example 107, 3-(2-chloro-6-fluoro-3,5-dimethoxyphenyl)-1-(1-methyl-1H-pyrazol-4-yl)-1,3,4,7-tetrahydro-2H-pyrrolo[3′,2′:5,6]pyrido[4,3-d]pyrimidin-2-one]
< 100 nM: all assays above

COc1cc(OC)c(Cl)c(N2Cc3cnc4[nH]ccc4c3N(c3cccnc3)C2=O)c1F [Example 108, 3-(2-chloro-6-fluoro-3,5-dimethoxyphenyl)-1-pyridin-3-yl-1,3,4,7-tetrahydro-2H-pyrrolo[3′,2′:5,6]pyrido[4,3-d]pyrimidin-2-one]
< 100 nM: all assays above

COc1cc(OC)c(F)c(N2Cc3cnc4[nH]ccc4c3N(c3cccnn3)C2=O)c1F [Example 109, 3-(2,6-difluoro-3,5-dimethoxyphenyl)-1-pyridazin-3-yl-1,3,4,7-tetrahydro-2H-pyrrolo[3′,2′:5,6]pyrido[4,3-d]pyrimidin-2-one]
< 100 nM: all assays above

COc1cc(OC)c(F)c(N2Cc3cnc4[nH]c(CN5CCOCC5)cc4c3N(C)C2=O)c1F [Example 110, 3-(2,6-difluoro-3,5-dimethoxyphenyl)-1-methyl-8-(morpholin-4-ylmethyl)-1,3,4,7-tetrahydro-2H-pyrrolo[3′,2′:5,6]pyrido[4,3-d]pyrimidin-2-one]
< 100 nM: all assays above

COc1cc(OC)c(F)c(N2Cc3cnc4[nH]c(CN5CCC(O)CC5)cc4c3N(C)C2=O)c1F [Example 111, 3-(2,6-difluoro-3,5-dimethoxyphenyl)-8-[(4-hydroxypiperidin-1-yl)methyl]-1-methyl-1,3,4,7-tetrahydro-2H-pyrrolo[3′,2′:5,6]pyrido[4,3-d]pyrimidin-2-one]
< 100 nM: all assays above
